Read-outs that look alike come from different tables or passages of the source.
Assays:
[1] = tested on: conscious spontaneously hypertensive rats (SHR); assay: hypotensive action in conscious spontaneously hypertensive rats (SHR); type: in vivo; details: 10 mg/kg orally, starved overnight
Protocol: Selected compounds of the present invention were tested for their hypotensive action in conscious spontaneously hypertensive rats (SHR).
A group of 17 to 20-week old male SHR were anesthetized with ether and a cannula was inserted into the left femoral artery. At least one day after the operation, the cannula was connected to a pressure transducer and the blood pressure was measured continuously under conscious and unrestrained condition, thereby obtaining the data shown in Table 4. Each of the test compounds as a clear suspension in 0.5% CMC-Na was administered orally at a dose of 10 mg/kg (body weight) to each animal which was starved overnight.

[2] = acute toxicity (LD50) in male mice; details: mouse, in vivo
Source text: The acute toxicity (LD50) data of selected compounds of the present invention as administered to two groups of male mice were obtained and the results are shown in Table 5. One group of mice which received peroral administration had been starved overnight. Each of the test compounds was suspended in 0.5% CMC-Na for peroral administration, or dissolved in dimethyl sulfoxide and diluted with physiological saline solution for intravenous injection.

[3] = tested on: vascular resistance of the vertebral artery; assay: vascular resistance of the vertebral artery in anesthetized dogs; type: in vivo; details: intravenous injection; for ED30: Canis lupus familiaris, vertebral artery vascular resistance
Protocol: The pharmacological effect (ED30) of selected 2-chloro-1,4-dihydropyridine derivatives of the present invention with respect to the vascular resistance of the vertebral artery in anesthetized dogs was treated by the following procedures.
Adult dogs of either sex (7-14 kg in body weight) were anesthetized with at first thiopental sodium (35 mg/kg, intraperitoneal), anesthetized with urethane (400 mg/kg, intravenous) and α-chloalose (60 mg/kg, intravenous) and kept under artificial respiration throughout the experiment. After thoracotomy at the left first intercostal space, the vertebral artery was exposed and blood flow was measured with an intracorporeal flow probe connected to an electromagnetic flowmeter (MF-27, Nihon Kohden).
At the same time, continuous measurement of the following parameters was made: systemic blood pressure (mean pressure) at the right femoral artery, the limb lead II ECG, the heart rate with a tachometer triggered by the R wave of ECG, and the vascular resistance determined by loading an electronic divider (EO-601 G, Nihon Kohden) with the mean values of blood pressure and vertebral artery blood flow. All of these parameters were recorded simultaneously on a polygraph (RM-600, Nihon Kohden).
All the test compounds were injected through a cannula inserted into the femoral vein.
The ED30 (μg/kg) values obtained by intravenous injection and the values of T1/2 (min) (the time to reach 50% of the resistance drop) are shown in Table 3, wherein the Compound Numbers are keyed to the Example Numbers.

[4] = tested on: isolated guinea pig hearts (coronary artery); assay: coronary vascular dilative effect in isolated guinea pig hearts (Langendorff); design: species or system Hartley guinea pigs; details: isolated hearts perfused at 37° C., 0.1 ml of diluted solution into the coronary artery
Protocol: The coronary vascular dilative effect of selected 2-chloro-1,4-dihydropyridine derivatives of the present invention was tested.
Hartley guinea pigs (weight 400-500 g) were killed by a blow on the head and their hearts were immediately isolated. The hearts were perfused with Krebs-Henseleit solution bubbled with a mixture of 95% O2 +5% CO2 and maintained at 37° C. at a constant rate of 6 ml/minute according to Langendorff's method [J. Pharmacol. Methods 2, 143 (1979)]. The perfusion pressure was measured continuously by a pressure transducer. Samples were prepared by emulsifying 1 mg of a test compound in 1 ml of a mixture of dimethylsulfoxide and physiological saline solution (1:9) and diluting with physiological saline solution to the predetermined concentration. 0.1 ml of the diluted solution was administered into the coronary artery via rubber tube connected to an aorta cannula to obtain ED50 (μg/heart) data as shown in Table 2. The numbers of the compounds in the Table correspond respectively to those of the working examples described above.

[5] = iv, male mice, read-out: LD50 i.v.
[6] = po, male mice starved overnight, suspended in 0.5% CMC-Na, read-out: LD50 p.o.

COC(=O)C1=C(C)NC(C)=C(C(=O)OCCN(C)Cc2ccccc2)C1c1cccc([N+](=O)[O-])c1 (stereo not drawn) [Nicardipine, reference compound]
Blood pressure drop, Maximum drop [1]: 39% | Blood pressure drop, 6 hours [1]: 10-20% | LD50 [2, 5]: 12.2 mg/kg | LD50 [2, 6]: 455 mg/kg

COC(=O)C1=C(C)NC(Cl)=C(C(=O)OC)C1c1cccc([N+](=O)[O-])c1 (stereo not drawn) [SUN 4616]
ED30 [3]: 0.0012 mg/kg

COC(=O)C1=C(C)NC(Cl)=C(C(=O)OC)C1c1ccccc1[N+](=O)[O-] (stereo not drawn) [SUN 4671]
ED30 [3]: 0.00059 mg/kg

COC(=O)C1=C(Cl)NC(C)=C(C(=O)OCCN2CCN(C(c3ccccc3)c3ccccc3)CC2)C1c1cccc([N+](=O)[O-])c1 (stereo not drawn) [SUN 4752, 5-[2-(4-Benzhydrylpiperazin-1-yl)ethyl]oxycarbonyl-2-chloro-3-methoxycarbonyl-6-methyl-4-(3-nitrophenyl)-1,4-dihydropyridine]
Blood pressure drop, Maximum drop [1]: 35% | Blood pressure drop, 6 hours [1]: 30% | LD50 [2, 5]: 23 to 27 mg/kg | LD50 [2, 6]: 1000 mg/kg | ED30 [3]: 0.003 mg/kg | T1/2 (the time to reach 50% of the resistance drop) [3]: > 30 min

COC(=O)C1=C(Cl)NC(C)=C(C(=O)OCCN(C)Cc2ccccc2)C1c1cccc([N+](=O)[O-])c1 (stereo not drawn) [SUN 5017]
ED30 [3]: 0.0033 mg/kg | T1/2 (the time to reach 50% of the resistance drop) [3]: 17.0 min

COC(=O)C1=C(Cl)NC(C)=C(C(=O)OCCN2CCN(C3c4ccccc4-c4ccccc43)CC2)C1c1cccc([N+](=O)[O-])c1 (stereo not drawn) [SUN 5018]
ED30 [3]: 0.0043 mg/kg | T1/2 (the time to reach 50% of the resistance drop) [3]: 15.5 min

COC(=O)C1=C(Cl)NC(C)=C(C(=O)OCCCCCc2ccccc2)C1c1cccc([N+](=O)[O-])c1 (stereo not drawn) [SUN 5088]
ED30 [3]: 0.0014 mg/kg | T1/2 (the time to reach 50% of the resistance drop) [3]: 17.0 min

COC(=O)C1=C(Cl)NC(C)=C(C(=O)OC(C)C)C1c1cccc([N+](=O)[O-])c1 (stereo not drawn) [SUN 5141]
Blood pressure drop, Maximum drop [1]: 51% | Blood pressure drop, 6 hours [1]: 33% | LD50 [2, 5]: 80 mg/kg | ED50 [4]: 0.05 μg/heart | ED30 [3]: 0.00028 mg/kg | T1/2 (the time to reach 50% of the resistance drop) [3]: 10.6 min

COC(=O)C1=C(Cl)NC(C)=C(C(=O)OC2CCCN(Cc3ccc(F)cc3)C2)C1c1cccc([N+](=O)[O-])c1 (stereo not drawn) [SUN 5142, 2-Chloro-5-[1-(4-fluorobenzyl)piperidin-3-yl]oxycarbonyl-3-methoxycarbonyl-6-methyl-4-(3-nitrophenyl)-1,4-dihydroppyridine]
ED50 [4]: 0.03 μg/heart | ED30 [3]: 0.0028 mg/kg | T1/2 (the time to reach 50% of the resistance drop) [3]: > 30 min

CCCCCCCOC(=O)C1=C(C)NC(Cl)=C(C(=O)OC)C1c1cccc([N+](=O)[O-])c1 (stereo not drawn) [SUN 5143]
ED50 [4]: 0.02 μg/heart | ED30 [3]: 0.0022 mg/kg | T1/2 (the time to reach 50% of the resistance drop) [3]: 20.5 min

COC(=O)C1=C(Cl)NC(C)=C(C(=O)OCCOc2ccccc2)C1c1cccc([N+](=O)[O-])c1 (stereo not drawn) [SUN 5151]
ED30 [3]: 0.0036 mg/kg | T1/2 (the time to reach 50% of the resistance drop) [3]: 10.5 min

COC(=O)C1=C(Cl)NC(C)=C(C(=O)OCCc2cccs2)C1c1cccc([N+](=O)[O-])c1 (stereo not drawn) [SUN 5163]
ED30 [3]: 0.0093 mg/kg | T1/2 (the time to reach 50% of the resistance drop) [3]: 14.0 min

COC(=O)C1=C(Cl)NC(C)=C(C(=O)OCC2CC2)C1c1cccc([N+](=O)[O-])c1 (stereo not drawn) [SUN 5164]
ED30 [3]: 0.00022 mg/kg

COC(=O)C1=C(Cl)NC(C)=C(C(=O)OC(CN(C)Cc2ccccc2)c2ccccc2)C1c1cccc([N+](=O)[O-])c1 (stereo not drawn) [SUN 5181]
ED30 [3]: 0.0021 mg/kg

COCCOC(=O)C1=C(C)NC(Cl)=C(C(=O)OC)C1c1cccc([N+](=O)[O-])c1 (stereo not drawn) [SUN 5220]
ED30 [3]: 0.0058 mg/kg | T1/2 (the time to reach 50% of the resistance drop) [3]: 13.5 min

CCOC(=O)C1=C(Cl)NC(C)=C(C(=O)OCCN2CCOCC2)C1c1ccccc1[N+](=O)[O-] (stereo not drawn) [SUN 5252]
ED30 [3]: 0.0036 mg/kg

Source: patent US4824837A, “Novel 1,4-dihydropyridine derivatives, process for preparing the same, and agents for treating disorders of circulatory system” (Suntory Limited, priority 1985, dated 1989)
